PubChem BioAssay AID624258 (Broad Institute, 2012)
Calls of active or inactive are those of the source. How the calls were made is not given here.

Test: Yeast SKN7 toxicity growth rescue counterscreen, Saccharomyces cerevisiae, plate reader, dose confirmatory (AID 624258);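 further: growth read after three days of incubation at 30 °C; 0% = median of neutral control wells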
Conditions: S. cerevisiae SKN7-toxicity growth rescue, plate reader

For `O=C(COc1ccc([N+](=O)[O-])cc1)Nc1nc(-c2ccccn2)cs1`, the growth rescue activity (at 19.5 µM (top of the series)) was -63.6% (inactive).

For `S=C(NCc1ccco1)Nc1ccc(Oc2ccc(Cl)cc2)cc1`, the growth rescue activity (at 19.5 µM (top of the series)) was 26.1% (inactive).

In the case of `Cc1c(C2(O)CCCCC2)[nH]c2ccc(C(F)(F)F)cc12`, the growth rescue activity (at 19.5 µM (top of the series)) is reported as -43.8% (inactive).

With `Cn1ccsc1=NC(=O)c1ccc([N+](=O)[O-])o1` the growth rescue activity (at 19.5 µM (top of the series)) was -53.8% (inactive).

With `COc1cccc(/C=N/NC(=O)c2nc(-c3ccccc3)cc(-c3ccccc3)n2)c1O` the growth rescue activity (at 19.5 µM (top of the series)) was -39.2% (inactive).

In the case of `CCc1cc(C(=O)Nc2nc(-c3ccccn3)cs2)sc1C`, the growth rescue activity (at 19.5 µM (top of the series)) is reported as -67.6% (inactive).

For `CCCCC(c1nnnn1Cc1ccco1)N1CCN(c2nc3ccccc3s2)CC1` (centres undefined), the growth rescue activity (at 19.5 µM (top of the series)) was -9.41% (inactive).

In the case of `O=[N+]([O-])c1ccc(/C=N/NC(=S)Nc2ccc(Cl)cc2Cl)s1`, the growth rescue activity (at 19.5 µM (top of the series)) is reported as -44% (inactive).

For `O=c1[nH]c2c(c(=O)[nH]1)OCN(Cc1ccccc1)C2`, the growth rescue activity (at 19.5 µM (top of the series)) was -23.4% (inactive).

For `CC(C)(C)c1ccc(C(=O)NC(=S)NNC(=O)c2cccs2)cc1`, the growth rescue activity (at 19.5 µM (top of the series)) was -72.5% (inactive).

In the case of `CCCCNC(=S)N/N=C1\CCCCc2ccccc21`, the growth rescue activity (at 19.5 µM (top of the series)) is reported as -53.8% (inactive).

With `CCCCC(=O)NC(=S)NNC(=O)CCc1ccccc1` the growth rescue activity (at 19.5 µM (top of the series)) was -22.9% (inactive).

In the case of `CNc1cc(CSC)nc(SCc2ccc(Cl)cc2Cl)n1`, the growth rescue activity (at 19.5 µM (top of the series)) is reported as -57.8% (inactive).

In the case of `Cc1ccc(-n2nnnc2SCC(=O)N2CCc3ccccc3C2)c(C)c1`, the growth rescue activity (at 19.5 µM (top of the series)) is reported as -18.8% (inactive).

In the case of `CC(C)N1CCN(c2ccc(OC[C@H]3CO[C@](Cn4cncn4)(c4ccc(Cl)cc4Cl)O3)cc2)CC1`, the growth rescue activity (at 19.5 µM (top of the series)) is reported as -63.3% (inactive).

In the case of `Oc1c(CN2CCCC2)cc(COCc2ccccc2)c2cccnc12`, the growth rescue activity (at 19.5 µM (top of the series)) is reported as 23.1% (inactive).

With `Cn1cncc1C#Cc1c(-c2ccsc2)sc2ccccc12` the growth rescue activity (at 19.5 µM (top of the series)) was -77.3% (inactive).

For `C=CCOc1ccc(-c2n[nH]c(=S)o2)cc1`, the growth rescue activity (at 19.5 µM (top of the series)) was -47.1% (inactive).

For `O=C1C=C(NCc2ccccc2)c2ccccc2C1=O`, the growth rescue activity (at 19.5 µM (top of the series)) was 41.7% (inactive).

For `CCCc1c(C)nn(C(=O)/C(C#N)=N/Nc2ccccc2[N+](=O)[O-])c1C`, the growth rescue activity (at 19.5 µM (top of the series)) was -8.75% (inactive).

For `COc1ccc(-c2nc(N)sc2C2(O)C(=O)Nc3c(Br)cc(F)cc32)cc1OC` (centres undefined), the growth rescue activity (at 19.5 µM (top of the series)) was 0.392% (inactive).

With `c1ccc(C(=NNc2nc3ccccc3s2)c2ccccn2)cc1` the growth rescue activity (at 19.5 µM (top of the series)) was -69.9% (inactive).

With `C=CCNC(=S)N1CCC(Cc2ccccc2)CC1` the growth rescue activity (at 19.5 µM (top of the series)) was -41% (inactive).

In the case of `O/N=C/c1cc(Br)ccc1OCc1ccccc1F`, the growth rescue activity (at 19.5 µM (top of the series)) is reported as -57.4% (inactive).

For `O=S(=O)(c1c(Cl)sc(Cl)c1Br)N1CCCC1`, the growth rescue activity (at 19.5 µM (top of the series)) was -25% (inactive).

With `C=CCn1c(-c2cc(-c3ccc(C)cc3)nc3ccccc23)n[nH]c1=S` the growth rescue activity (at 19.5 µM (top of the series)) was 0.203% (inactive).

In the case of `O=C1CC(c2cccc([N+](=O)[O-])c2)c2ccc3ccccc3c2N1` (centres undefined), the growth rescue activity (at 19.5 µM (top of the series)) is reported as 47.4% (inactive).

With `CN(C)c1nc(-c2ccccn2)nnc1-c1ccccc1` the growth rescue activity (at 19.5 µM (top of the series)) was -23.6% (inactive).

For `Oc1cccc2ccc(Nc3ccccn3)nc12`, the growth rescue activity (at 19.5 µM (top of the series)) was 6.81% (inactive).

For `CCOc1ccc(N/N=C(/C#N)C(N)=O)cc1`, the growth rescue activity (at 19.5 µM (top of the series)) was -49.6% (inactive).

In the case of `Cc1ccc(NS(=O)(=O)c2ccc(N3CCN(c4ccc(O)cc4)CC3)c([N+](=O)[O-])c2)c(C)c1`, the growth rescue activity (at 19.5 µM (top of the series)) is reported as -52.6% (inactive).

In the case of `CCOC(=O)c1nnn(-c2ccc([N+](=O)[O-])cc2[N+](=O)[O-])c1C`, the growth rescue activity (at 19.5 µM (top of the series)) is reported as 17.3% (inactive).

For `Cn1ccc(=Nc2ccc(NC(=O)c3ccc(N=c4ccn(C)c5ccc([N+](=O)[O-])cc45)cc3)cc2)cc1`, the growth rescue activity (at 19.5 µM (top of the series)) was -76.1% (inactive).

In the case of `COc1cc2c(cc1OC)C(C)N(C(=O)c1cccc([N+](=O)[O-])c1)CC2` (centres undefined), the growth rescue activity (at 6.8 µM (top of the series)) is reported as -17.8% (inactive).

With `O=C(COC(=O)c1ccc([N+](=O)[O-])o1)NC12CC3CC(CC(C3)C1)C2` the growth rescue activity (at 19.5 µM (top of the series)) was -18.4% (inactive).

With `Cc1cccc(Oc2nc(-c3ccccn3)nc3ccccc23)c1` the growth rescue activity (at 19.5 µM (top of the series)) was -67.8% (inactive).

In the case of `C=CCOC(Cn1ccnc1)c1ccc(Cl)cc1Cl` (centres undefined), the growth rescue activity (at 19.5 µM (top of the series)) is reported as -40.8% (inactive).

For `Cc1cc2nc(-c3ccc4c(c3)CCC4)ccn2n1`, the growth rescue activity (at 19.5 µM (top of the series)) was -10.6% (inactive).

With `Cc1ccc(Sc2cc(C)nc(-c3ccccn3)n2)cc1` the growth rescue activity (at 19.5 µM (top of the series)) was -67.1% (inactive).

For `O=C1c2cc(F)ccc2-n2c1nc1ccccc1c2=O`, the growth rescue activity (at 19.5 µM (top of the series)) was -16.1% (inactive).

With `FC(F)(F)c1cccc(N2CCc3cn[nH]c32)c1` the growth rescue activity (at 19.5 µM (top of the series)) was -94.6% (inactive).

For `COC(=O)C(=N/Nc1ccccc1C(=O)OC)/C(C)=N/O`, the growth rescue activity (at 19.5 µM (top of the series)) was -7.81% (inactive).

For `CC(C)C(=O)NC(c1cccc([N+](=O)[O-])c1)c1ccc2cccnc2c1O` (centres undefined), the growth rescue activity (at 19.5 µM (top of the series)) was -62.7% (inactive).

In the case of `CCCCCCC(Cl)(Cn1ccnc1)c1ccccc1` (centres undefined), the growth rescue activity (at 19.5 µM (top of the series)) is reported as -69.6% (inactive).

For `CC1(C)C2CCC1(C)C(OC(=O)c1ccc(O)cc1)C2` (centres undefined), the growth rescue activity (at 19.5 µM (top of the series)) was -86.9% (inactive).

With `C=C1C(=O)C23CCC4C(C)(C(=O)OC)CCCC4(C)C2CCC1(O)C3` (centres undefined) the growth rescue activity (at 2.1 µM (top of the series)) was -9.52% (inactive).

With `COc1ccc2oc(=O)c(-c3csc(Nc4cccc(O)c4)n3)cc2c1` the growth rescue activity (at 19.5 µM (top of the series)) was 12.4% (inactive).

In the case of `Cc1cccc2sc(NNC(=O)c3ccc(S(=O)(=O)N4CCCC(C)C4)cc3)nc12` (centres undefined), the growth rescue activity (at 19.5 µM (top of the series)) is reported as -51.9% (inactive).

With `O=C(CSc1nccn(-c2cccc(F)c2)c1=O)Nc1ccc(Cl)cc1F` the growth rescue activity (at 19.5 µM (top of the series)) was 26.9% (inactive).

With `CCCCCOc1ccc(CSc2n[nH]c(C)n2)cc1` the growth rescue activity (at 19.5 µM (top of the series)) was -91.3% (inactive).

For `Cc1ccccc1C(=O)NNC(=S)NC(=O)c1ccc(Cl)cc1Cl`, the growth rescue activity (at 19.5 µM (top of the series)) was -23.2% (inactive).

For `NC(=O)N=Nc1c2[nH]c3ccccc3nc-2c2ccccc12`, the growth rescue activity (at 19.5 µM (top of the series)) was 6.67% (inactive).

With `O=C(N1CCN(c2ccccc2)CC1)C1(S(=O)(=O)c2ccc(Cl)cc2)CC1` the growth rescue activity (at 19.5 µM (top of the series)) was 21.3% (inactive).

In the case of `Cc1nc(Sc2ccccc2)c(C#N)c(C)c1[N+](=O)[O-]`, the growth rescue activity (at 19.5 µM (top of the series)) is reported as 147% (inactive).

In the case of `O=C1OC(c2ccccc2)=NC12CC2c1ccc(Cl)cc1` (centres undefined), the growth rescue activity (at 19.5 µM (top of the series)) is reported as -72.5% (inactive).

With `CCN(CC)C(=O)C1CCCc2c1[nH]c1ccc(Cl)cc21` (centres undefined) the growth rescue activity (at 19.5 µM (top of the series)) was -45% (inactive).

With `O=C(COc1ccccc1F)Nc1nc(-c2ccccn2)cs1` the growth rescue activity (at 19.5 µM (top of the series)) was -57.2% (inactive).

For `CC(C)N1CCN(c2ccc(OCC3COC(Cn4cncn4)(c4ccc(Cl)cc4Cl)O3)cc2)CC1` (centres undefined), the growth rescue activity (at 19.5 µM (top of the series)) was -56.9% (inactive).

In the case of `O=C1C=C(N(CCO)Cc2ccccc2)c2ccccc2C1=O`, the growth rescue activity (at 19.5 µM (top of the series)) is reported as 12.2% (inactive).

With `CC(C)(C)OC(=O)N1CCC(c2cc(-c3cccs3)n[nH]2)CC1` the growth rescue activity (at 19.5 µM (top of the series)) was -58.6% (inactive).

In the case of `CC(C)(CN1CCc2ccccc2C1)NS(=O)(=O)c1ccc(Cl)cc1`, the growth rescue activity (at 19.5 µM (top of the series)) is reported as -9.34% (inactive).

With `Cc1cc(O)c(-c2cc(O)c(C)cc2O)cc1O` the growth rescue activity (at 19.5 µM (top of the series)) was -8.5% (inactive).

With `FC(F)(F)c1nc(SCc2ccc(Cl)cc2Cl)n[nH]1` the growth rescue activity (at 19.5 µM (top of the series)) was -80.8% (inactive).

With `O=C(COc1ccc(Cl)cc1)Nc1cccc(-c2ccc3nncn3n2)c1` the growth rescue activity (at 19.5 µM (top of the series)) was 13% (inactive).

For `CC1=NN(C(N)=S)C(=O)C1N=Nc1cccc(Cl)c1C` (centres undefined), the growth rescue activity (at 19.5 µM (top of the series)) was -42.1% (inactive).

For `C=C(C)COc1ccc(-c2[nH]ncc2-c2ccc(Br)cc2)c(O)c1`, the growth rescue activity (at 19.5 µM (top of the series)) was -77.7% (inactive).

With `S=C(NNc1ccc2ccccc2c1)NC1CCCCC1` the growth rescue activity (at 19.5 µM (top of the series)) was -14.9% (inactive).

For `N#CC1C(=N)Cc2ccccc2-c2ccccc21` (centres undefined), the growth rescue activity (at 19.5 µM (top of the series)) was -20.3% (inactive).

In the case of `Cn1nnnc1N=N/C(=N/Nc1ccccc1)c1ccccc1`, the growth rescue activity (at 19.5 µM (top of the series)) is reported as -47% (inactive).
